Results from article PMC11714206, “Massively Parallel Screening of Toll/Interleukin‐1 Receptor (TIR)‐Derived Peptides Reveals Multiple Toll‐Like Receptors (TLRs)‐Targeting Immunomodulatory Peptides” (Advanced Science, 2024).
Blank lines part the entries; values can stand above or below the sequence they belong to.

Biological target: T1, MAL^TIR (Homo sapiens, UniProt P58753)
T1 construct: MAL (residues 79–221); 6xHis; made in house; host or cells: E. coli BL21 (DE3)
Assay: T‐Surf phage library (P8 and P3) selection against MAL^TIR, four rounds, NGS read counts
Assay type: binding
Conditions: for P3_MAL Rank (after) / P3_MAL Rank (before): P3 library; for P8_MAL Rank (after) / P8_MAL Rank (before): P8 library; for Population: 4th round of selection against MAL TIR, share of NGS reads
How it was run: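 Read counts come from NGS of phage pools after the fourth selection round, barcoded by 20-cycle PCR and filtered for quality ≥30. Each round: phage incubated 1 h at RT on immobilised TIR protein (5 µg mL^−1, BSA-blocked), washed, HCl-eluted and amplified in E. coli TG1.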

[1] = selection against MAL, rank by count after grouping
[2] = selection against MAL, rank by count before grouping
[3] = 4R selection against MAL, rank after grouping
[4] = 4R selection against MAL, rank before grouping
[5] = selection against MAL TIR, rank by count after grouping
[6] = selection against MAL TIR, rank by count before grouping
[7] = P8_MAL: rank by count after grouping
[8] = P8_MAL: rank by count before grouping
[9] = P3_MAL: rank by count after grouping
[10] = P3_MAL: rank by count before grouping
[11] = selection against MAL, rank after grouping
[12] = selection against MAL, rank before grouping
[13] = P8_MAL pool: P8 T-Surf phage library

T1 sequence (P58753 79-221): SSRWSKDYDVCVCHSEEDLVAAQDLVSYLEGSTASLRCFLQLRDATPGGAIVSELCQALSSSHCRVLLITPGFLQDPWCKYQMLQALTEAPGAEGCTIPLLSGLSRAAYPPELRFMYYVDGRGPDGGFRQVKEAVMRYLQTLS

P3_MAL Rank (after) [1]: 719 | P3_MAL Rank (before) [2]: 1435
Sequence: YAFTGHLQRYLVQRGE

P3_MAL Rank (after) [3]: 595 | P3_MAL Rank (before) [4]: 2071
Sequence: ESILNQRRPSSQSIAN

P3_MAL Rank (after) [5]: 277 | P3_MAL Rank (before) [6]: 739
Sequence: YAFTGHLHRYHLPAPQH

P8_MAL Rank (after) [3]: 623 | P8_MAL Rank (before) [4]: 1589
Sequence: AFFCTHLKSVLDNPTM

P3_MAL Rank (after) [5]: 238 | P3_MAL Rank (before) [6]: 1525
Sequence: YQWRNALTAAANLRGW

Rank (after) [7]: 98 | Rank (before) [8]: 1259
Sequence: WFYERQVSLILRDTNV

P8_MAL Rank (after) [3]: 643 | P8_MAL Rank (before) [4]: 1505
Sequence: YFLHFRLLSRPETEYI

Rank (after) [9]: 153 | Rank (before) [10]: 1027
Sequence: SSFREGLWRLLELSNE

P3_MAL Rank (after) [5]: 192 | P3_MAL Rank (before) [6]: 979
Sequence: HQAFTGHLHRYLVQRGV

P3_MAL Rank (after) [5]: 236 | P3_MAL Rank (before) [6]: 2160
Sequence: LQNQWKLALTKVAKLE

P3_MAL Rank (after) [5]: 219 | P3_MAL Rank (before) [6]: 2152
Sequence: LQNQWKLALTKVAHLL

P3_MAL Rank (after) [3]: 658 | P3_MAL Rank (before) [4]: 3188
Sequence: SSFREDMWRRLELSQQ

P8_MAL Rank (after) [11]: 486 | P8_MAL Rank (before) [12]: 1271
Sequence: WFYERLVSMITRDTNV

Rank (after) [9]: 443 | Rank (before) [10]: 1397
Sequence: YAFTGHLHRYLVQRGEP

P8_MAL Rank (after) [5]: 215 | P8_MAL Rank (before) [6]: 1986
Sequence: DSKLKKGESIAPALLR

P3_MAL Rank (after) [1]: 676 | P3_MAL Rank (before) [2]: 1673
Sequence: VEPTQVRKQSGAVENATG

Population (P3_MAL pool: P3 T-Surf phage library): 0.00827%
Sequence: YAFTGYLHRYLVQRGV

P3_MAL Rank (after) [5]: 197 | P3_MAL Rank (before) [6]: 1698
Sequence: VRHSFAGYRYDALNRL

P3_MAL Rank (after) [5]: 218 | P3_MAL Rank (before) [6]: 1020
Sequence: SSFLSHLFDALQRKQI

P8_MAL Rank (after) [5]: 264 | P8_MAL Rank (before) [6]: 1603
Sequence: AFFWAQVKSVLGNTTM

P3_MAL Rank (after) [11]: 488 | P3_MAL Rank (before) [12]: 2636
Sequence: PDKDKGGENAFINNIV

P3_MAL Rank (after) [1]: 723 | P3_MAL Rank (before) [2]: 3142
Sequence: SSFREGLWRLLALSTN

P3_MAL Rank (after) [5]: 249 | P3_MAL Rank (before) [6]: 1409
Sequence: YAFTGHLHRYLVQPGG

Population [13]: 0.00463%
Sequence: AFFWAQLKSELGNPTM

P8_MAL Rank (after) [11]: 491 | P8_MAL Rank (before) [12]: 1776
Sequence: AFLGEQLHTMVDKPTM

Rank (after) [9]: 121 | Rank (before) [10]: 408
Sequence: AFTGHLHRYLVQRGV

P8_MAL Rank (after) [3]: 589 | P8_MAL Rank (before) [4]: 1835
Sequence: AFLYTFLIILPIRPNF

Rank (after) [9]: 445 | Rank (before) [10]: 1356
Sequence: YAFTGYLHRYLVQRGG

Rank (after) [7]: 133 | Rank (before) [8]: 1753
Sequence: AFLCPQLKSVLGNPTI

P3_MAL Rank (after) [11]: 547 | P3_MAL Rank (before) [12]: 2451
Sequence: RAFVAHLYEALKKRAN

P8_MAL Rank (after) [11]: 550 | P8_MAL Rank (before) [12]: 1151
Sequence: WFYERFVSQIPRDTNL

Population [13]: 0.00309%
Sequence: AFFCAQLKSVLGNPTM

P8_MAL Rank (after) [11]: 536 | P8_MAL Rank (before) [12]: 1872
Sequence: AFLYTFLNNLTHTTNI

P3_MAL Rank (after) [5]: 273 | P3_MAL Rank (before) [6]: 2682
Sequence: PNLRTKLLNSLMRTKT

Rank (after) [9]: 475 | Rank (before) [10]: 1552
Sequence: YTALTKSGVHAFRDND

P8_MAL Rank (after) [1]: 695 | P8_MAL Rank (before) [2]: 2330
Sequence: PFLVHQYNEALQADSH

P8_MAL Rank (after) [5]: 220 | P8_MAL Rank (before) [6]: 1338
Sequence: WFLFTVRSATYTMSPA

Rank (after) [7]: 437 | Rank (before) [8]: 2252
Sequence: RNIVAYPFQALANIGI

P8_MAL Rank (after) [3]: 675 | P8_MAL Rank (before) [4]: 1585
Sequence: AFFCAQLKSVMGNPTI

P3_MAL Rank (after) [1]: 744 | P3_MAL Rank (before) [2]: 2310
Sequence: LKEESWRQAQEKAGKL

P3_MAL Rank (after) [11]: 578 | P3_MAL Rank (before) [12]: 2421
Sequence: RGLLSQLRHHLQAKDH

P3_MAL Rank (after) [3]: 624 | P3_MAL Rank (before) [4]: 2699
Sequence: PNLRTKVLYYPMRTKT

P8_MAL Rank (after) [5]: 203 | P8_MAL Rank (before) [6]: 2461
Sequence: SEFIQKIILWLNTKIV

Rank (after) [9]: 441 | Rank (before) [10]: 2614
Sequence: RNVMSHLYQGLQNRGI

Rank (after) [9]: 435 | Rank (before) [10]: 2116
Sequence: LGFFCNQAKALSDRGI

P3_MAL Rank (after) [3]: 639 | P3_MAL Rank (before) [4]: 3743
Sequence: KTLAGLRCDHLFRLRL

Rank (after) [9]: 423 | Rank (before) [10]: 2362
Sequence: RGFLSHLYQGLKNRGI

P8_MAL Rank (after) [5]: 228 | P8_MAL Rank (before) [6]: 1866
Sequence: AFLYTFLINLTHKPTF

P3_MAL Rank (after) [3]: 672 | P3_MAL Rank (before) [4]: 3487
Sequence: KWFWDTLTYAPNLSPH

P8_MAL Rank (after) [5]: 212 | P8_MAL Rank (before) [6]: 1278
Sequence: WFYERLVSLIQRDTTV

P3_MAL Rank (after) [5]: 275 | P3_MAL Rank (before) [6]: 2395
Sequence: RGFLSHLRHHLPAKEH

P3_MAL Rank (after) [3]: 661 | P3_MAL Rank (before) [4]: 3604
Sequence: KERLHQWKLALTQAPI
